SMILES strings stand for the structures.

Data set [1] deals with T1, OATP1B1*15 (Homo sapiens, UniProt Q9Y6L6, N130D/V174A).
T1 construct: expressed in transfected cells
T1 sequence (Q9Y6L6 1-691 N130D/V174A): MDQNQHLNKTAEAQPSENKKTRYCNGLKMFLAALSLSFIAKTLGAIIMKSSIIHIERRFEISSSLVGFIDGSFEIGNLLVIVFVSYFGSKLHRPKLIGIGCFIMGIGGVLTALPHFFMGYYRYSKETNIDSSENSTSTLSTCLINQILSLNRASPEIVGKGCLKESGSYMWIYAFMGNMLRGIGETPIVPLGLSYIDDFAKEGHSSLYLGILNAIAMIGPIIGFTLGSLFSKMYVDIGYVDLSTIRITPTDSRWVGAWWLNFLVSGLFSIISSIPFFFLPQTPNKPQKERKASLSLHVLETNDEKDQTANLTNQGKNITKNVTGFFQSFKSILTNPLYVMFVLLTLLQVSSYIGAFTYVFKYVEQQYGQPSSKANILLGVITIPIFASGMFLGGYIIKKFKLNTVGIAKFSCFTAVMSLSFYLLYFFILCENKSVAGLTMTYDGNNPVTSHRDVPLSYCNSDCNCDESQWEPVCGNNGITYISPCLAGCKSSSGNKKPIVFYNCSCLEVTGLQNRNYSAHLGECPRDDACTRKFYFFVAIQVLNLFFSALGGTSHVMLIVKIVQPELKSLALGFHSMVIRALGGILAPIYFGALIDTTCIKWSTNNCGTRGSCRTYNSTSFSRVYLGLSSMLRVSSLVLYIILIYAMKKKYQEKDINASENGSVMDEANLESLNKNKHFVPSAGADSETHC
Kind of data set: Remdesivir uptake into HEK cells stably expressing OATP1B1*15 vs vector control. The class given is in vitro ADME. The settings on record: 10 min. The text has this:
(§1) Generation, cultivation and characterization of human embryonic kidney (HEK) cells stably expressing OATP1B1 refseq (=OATP1B1*1a), OATP1B1*1b, OATP1B1*5 and OATP1B1*15 [18], OATP1B3 [19], OATP2B1 [13] and OCT1 [20] have been described previously. OATP1B1 cells were cultivated in minimal essential medium (Life Technologies, Paisley, UK) and OATP1B3, OATP2B1 and OCT1 cells were cultivated in Dulbecco’s modified Eagle medium (Sigma, Darmstadt, Germany). Cultivation media were supplemented with 10% fetal calf serum, 100 U/mL penicillin and 100 µg/mL streptomycin. Cells were grown at 37 °C and 5% CO2. Functionality of the cells was confirmed by measuring uptake of prototypic substrates (see Section 2.3 and supplementary material).
Uptake assays were conducted at 37 °C according to previously described methods. For this, cells were seeded in 24-well plates (320,000 cells/well) and cultured for 2 days. Cells were then incubated for a further 24 h in culture medium with 5 mM butyrate (OATP1B3, OATP2B1, OCT1) or 10 mM butyrate (OATP1B1) to increase protein levels of recombinant transporters. Before the uptake experiments, cells were washed with the respective pre-warmed (37 °C) uptake buffer. The compositions of the uptake buffers were as follows: for OATP1B1, OATP1B3, OATP2B1: 142 mM NaCl, 12.5 mM hydroxyethylpiperazine ethanesulfonic acid, 5 mM KCl, 1 mM KH2PO4, 1.5 mM CaCl2, 1.2 mM MgSO4, 5 mM glucose, pH 7.3; for OCT1: 145 mM NaCl, 5 mM hydroxyethylpiperazine ethanesulfonic acid, 3 mM KCl, 1 mM CaCl2, 0.5 mM MgCl2, 5 mM glucose, pH 7.4. Uptake was initiated by replacing this solution with uptake buffer containing different concentrations of remdesivir as indicated. […]
(§2) Remdesivir was determined by UHPLC-MS-MS analysis on an Agilent 1290 infinity UHPLC system coupled to an Agilent 6495B triple quadrupole mass spectrometer (Agilent, Waldbronn, Germany) similar to a recently published method. […]

Data set [2] concerns the target T2, OCT1 (Homo sapiens, UniProt O15245).
T2 construct: expressed in transfected cells
T2 sequence (O15245 1-554): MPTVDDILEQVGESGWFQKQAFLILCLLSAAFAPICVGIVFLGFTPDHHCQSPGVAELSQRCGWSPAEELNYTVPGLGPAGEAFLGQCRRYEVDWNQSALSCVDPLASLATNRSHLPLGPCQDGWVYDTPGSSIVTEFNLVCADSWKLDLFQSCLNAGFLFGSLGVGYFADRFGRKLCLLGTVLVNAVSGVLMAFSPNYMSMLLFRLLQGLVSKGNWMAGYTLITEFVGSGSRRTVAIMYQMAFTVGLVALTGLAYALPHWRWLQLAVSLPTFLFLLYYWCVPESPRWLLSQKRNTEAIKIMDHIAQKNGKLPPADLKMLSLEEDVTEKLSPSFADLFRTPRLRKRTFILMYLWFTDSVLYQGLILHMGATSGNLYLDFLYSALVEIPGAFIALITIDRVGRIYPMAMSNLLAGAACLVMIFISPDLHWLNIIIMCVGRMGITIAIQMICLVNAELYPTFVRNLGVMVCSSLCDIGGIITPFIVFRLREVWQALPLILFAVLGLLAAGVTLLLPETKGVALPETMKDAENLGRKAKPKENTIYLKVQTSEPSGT
Kind of data set: Remdesivir uptake into HEK cells stably expressing OCT1 vs vector control. The class given is in vitro ADME. To be noted: 5 µM remdesivir, 10 min, transporter-expressing vs control HEK cells.
Description: as §1
Uptake assays were conducted at 37 °C according to previously described methods. For this, cells were seeded in 24-well plates (320,000 cells/well) and cultured for 2 days. Cells were then incubated for a further 24 h in culture medium with 5 mM butyrate (OATP1B3, OATP2B1, OCT1) or 10 mM butyrate (OATP1B1) to increase protein levels of recombinant transporters. […]
as §2

The subject of data set [3] is OATP2B1. Set-up: method as in PMID 33435273. The settings on record: pyranine transport; cited from earlier work.

Turning to `CCC(CC)COC(=O)[C@H](C)N[P@](=O)(OC[C@H]1O[C@@](C#N)(c2ccc3c(N)ncnn23)[C@H](O)[C@@H]1O)Oc1ccccc1` [Remdesivir], the “Uptake vs vector-transfected control cells” value in data set [1] (0.5 µM remdesivir) is on record as “significantly lower uptake”. Moreover, the “Accumulation vs vector-transfected control cells” value in data set [1] (5 µM remdesivir) was “moderately higher”; in data set [1] (10 and 50 µM remdesivir) it was “moderately higher”. For the same compound, the Remdesivir uptake ratio in data set [2] was 1.2. Besides, the IC50 (in general, the concentration needed to halve the response being measured) in data set [3] is 3.8 µM.

The record behind these values is paper PMC7999182, “Interaction of Remdesivir with Clinically Relevant Hepatic Drug Uptake Transporters” (Pharmaceutics, 2021).
